In patent publication US20200215036A1, “BENZIMIDAZOLE COMPOUNDS AS KINASE INHIBITORS” (GB005, Inc., priority 2017, published 2020):

How the values were obtained:
TXK = molecular target: T1, TXK (Homo sapiens, UniProt P42681); assay: Biochemical kinase assay (Nanosyn, micro-fluidic detection), TXK; details: for IC50: 12 concentrations, 3 hours incubation, 1 uM peptide substrate; for ITK/TXK Ratio: ratio of ITK IC50 to TXK IC50
T1 sequence (P42681 1-527): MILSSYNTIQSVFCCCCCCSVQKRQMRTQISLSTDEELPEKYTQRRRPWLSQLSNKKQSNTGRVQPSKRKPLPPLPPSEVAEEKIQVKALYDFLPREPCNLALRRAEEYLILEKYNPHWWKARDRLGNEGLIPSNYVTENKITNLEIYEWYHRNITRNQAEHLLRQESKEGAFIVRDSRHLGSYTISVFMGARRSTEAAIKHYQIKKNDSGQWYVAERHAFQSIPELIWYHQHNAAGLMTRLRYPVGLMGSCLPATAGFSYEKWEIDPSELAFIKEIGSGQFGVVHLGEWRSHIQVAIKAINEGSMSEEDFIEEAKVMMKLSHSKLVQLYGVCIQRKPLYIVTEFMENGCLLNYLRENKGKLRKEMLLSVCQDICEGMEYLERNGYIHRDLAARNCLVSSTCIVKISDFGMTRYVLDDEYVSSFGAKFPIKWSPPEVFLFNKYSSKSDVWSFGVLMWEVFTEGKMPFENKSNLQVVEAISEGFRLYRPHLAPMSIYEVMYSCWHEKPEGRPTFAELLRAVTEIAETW
Method: (§1) The in vitro kinase assays were performed at Nanosyn (Santa Clara, Calif.) utilizing micro-fluidic detection Technology. The test compounds were serially pre-diluted in DMSO and added, by the acoustic dispensing (Labcyte® 550), directly to 384we11 assay plates into 10 uL of a buffer with enzyme comprising: 100 mM HEPES, pH7.5, 5 mM MgCl2, 0.1% bovine serum albumin, 1 mM DTT, 0.01% Triton X-100 and the enzyme. Final DMSO concentration was maintained at 1% in all samples, including the controls. The reactions were initiated by addition of ATP (to the specified concentration) and the fluorescently labeled peptide substrate to a final concentration of 1 uM, and incubated for 3 hours at […]. Following incubation, the reactions were quenched by addition of 40 μL of termination buffer (100 mM HEPES, pH7.5, 0.01% Triton X-100, 50 mM EDTA). Terminated plates were analyzed using Caliper LabChip® 3000 microfluidic electrophoresis instrument (Caliper Life Sciences/Perkin Elmer). The enzymatic modification of the peptide substrate (phosphorylation) results in a change of net charge enabling electrophoretic separation of product from substrate. As substrate and product are separated by electrophoresis, two peaks of fluorescence are observed. Change in the relative fluorescence intensity of the substrate and product peaks was the parameter measured, reflecting enzyme activity. In the presence of inhibitor, the ratio between product and substrate is altered: signal of the product decreases, while the signal of the substrate increases. Activity in each test sample was determined as the product to sum ratio (PSR): P/(S+P), where P is the peak height of the product and S is the peak height of the FAM-cAMP substrate. For each compound, enzyme activity was measured at 12 concentrations spaced by 3× dilution intervals. Negative control samples (0%−inhibition in the absence of inhibitor, DMSO only) and positive control samples (100%−inhibition, in the absence of enzyme or in the presence of control inhibitor) were assembled in replicates of four and were used to calculate %−inhibition values in the presence of compounds. Percent inhibition (Pinh) was determined using the following equation: Pinh=(PSR0%−PSRinh)/(PSR0%−PSR100%)*100, where PSRinh is the product sum ratio in the presence of inhibitor, PSR0% is the product sum ratio in the absence of inhibitor and PSR100% is the product sum ratio in 100%-inhibition control samples. To determine IC50 values, the inhibition curves (Pinh versus inhibitor concentration) were fitted by 4 parameter sigmoid dose-response model using XLfit software (IDBS).

ITK = molecular target: T2, ITK (Homo sapiens, UniProt Q08881); assay: Biochemical kinase assay (Nanosyn, micro-fluidic detection), ITK; details: 12 concentrations, 3 hours incubation, 1 uM peptide substrate
T2 sequence (Q08881 1-620): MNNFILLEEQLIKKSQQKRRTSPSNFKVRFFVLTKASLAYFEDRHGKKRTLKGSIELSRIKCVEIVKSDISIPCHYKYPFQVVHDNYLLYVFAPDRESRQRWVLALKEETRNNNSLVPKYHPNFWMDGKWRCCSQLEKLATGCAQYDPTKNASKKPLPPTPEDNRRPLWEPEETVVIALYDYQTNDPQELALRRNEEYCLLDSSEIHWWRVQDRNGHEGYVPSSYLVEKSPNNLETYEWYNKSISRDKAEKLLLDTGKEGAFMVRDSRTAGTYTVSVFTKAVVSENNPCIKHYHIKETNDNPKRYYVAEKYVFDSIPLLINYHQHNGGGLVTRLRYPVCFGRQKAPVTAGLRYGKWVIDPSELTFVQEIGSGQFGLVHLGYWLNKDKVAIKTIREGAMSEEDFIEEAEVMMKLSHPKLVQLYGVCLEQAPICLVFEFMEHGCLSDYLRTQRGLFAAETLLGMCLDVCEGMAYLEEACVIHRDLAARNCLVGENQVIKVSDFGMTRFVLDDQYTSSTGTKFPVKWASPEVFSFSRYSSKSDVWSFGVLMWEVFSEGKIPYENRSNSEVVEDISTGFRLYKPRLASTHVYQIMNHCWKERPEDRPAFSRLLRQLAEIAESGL
Method: as §1

TEC = molecular target: T3, TEC (Homo sapiens, UniProt P42680); assay: Biochemical kinase assay (Nanosyn, micro-fluidic detection), TEC; details: 12 concentrations, 3 hours incubation, 1 uM peptide substrate
T3 sequence (P42680 1-631): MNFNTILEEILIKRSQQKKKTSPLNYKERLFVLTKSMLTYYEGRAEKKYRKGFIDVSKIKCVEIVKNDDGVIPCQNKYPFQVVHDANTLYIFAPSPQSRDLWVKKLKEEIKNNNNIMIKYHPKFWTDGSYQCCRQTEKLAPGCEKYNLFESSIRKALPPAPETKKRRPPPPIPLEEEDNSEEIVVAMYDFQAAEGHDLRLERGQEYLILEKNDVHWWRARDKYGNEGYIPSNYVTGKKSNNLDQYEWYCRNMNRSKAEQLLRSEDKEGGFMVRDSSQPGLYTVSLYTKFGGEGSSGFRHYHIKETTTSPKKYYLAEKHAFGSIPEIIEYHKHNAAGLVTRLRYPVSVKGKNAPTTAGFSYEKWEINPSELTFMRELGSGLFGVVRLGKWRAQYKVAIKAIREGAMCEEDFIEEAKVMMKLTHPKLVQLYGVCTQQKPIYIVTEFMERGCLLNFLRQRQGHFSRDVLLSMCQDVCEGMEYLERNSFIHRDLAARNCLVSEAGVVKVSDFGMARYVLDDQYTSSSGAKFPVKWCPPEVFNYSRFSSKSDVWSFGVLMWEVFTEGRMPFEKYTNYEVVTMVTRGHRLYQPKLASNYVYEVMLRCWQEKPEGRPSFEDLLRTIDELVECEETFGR
Method: as §1

BTK = BTK (Homo sapiens, UniProt Q06187); assay: Biochemical kinase assay (Nanosyn, micro-fluidic detection), BTK; details: 12 concentrations, 3 hours incubation, 1 uM peptide substrate
Method: as §1

BTK, sequence (Q06187 whole entry): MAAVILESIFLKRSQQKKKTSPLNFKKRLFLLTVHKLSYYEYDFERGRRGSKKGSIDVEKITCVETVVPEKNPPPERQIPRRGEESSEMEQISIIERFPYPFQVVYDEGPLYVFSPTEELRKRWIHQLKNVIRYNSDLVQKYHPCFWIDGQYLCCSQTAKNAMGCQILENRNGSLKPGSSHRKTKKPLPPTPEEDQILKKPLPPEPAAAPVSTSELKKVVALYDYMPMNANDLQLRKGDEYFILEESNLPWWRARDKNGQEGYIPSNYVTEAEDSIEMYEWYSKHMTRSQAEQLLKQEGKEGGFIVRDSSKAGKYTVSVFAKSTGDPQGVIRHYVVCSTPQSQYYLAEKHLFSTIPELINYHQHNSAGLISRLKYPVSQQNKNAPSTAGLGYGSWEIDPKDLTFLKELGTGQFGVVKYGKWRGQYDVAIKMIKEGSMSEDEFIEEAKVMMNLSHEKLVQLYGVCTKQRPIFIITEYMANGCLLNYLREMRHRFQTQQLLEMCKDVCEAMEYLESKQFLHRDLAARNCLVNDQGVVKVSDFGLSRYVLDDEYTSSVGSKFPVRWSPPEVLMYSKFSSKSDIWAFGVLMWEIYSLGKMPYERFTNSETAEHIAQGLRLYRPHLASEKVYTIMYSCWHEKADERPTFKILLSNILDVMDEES

IC50 (TXK) | ITK/TXK Ratio (TXK) | IC50 (ITK) | IC50 (TEC) | IC50 (BTK) | SMILES
3.02 nM | 13.5 | 40.9 nM | 11.1 nM | 14.7 nM | C=CC(=O)N1CC[C@]2(C1)C[C@H](n1c(NC(=O)c3cc(C)no3)nc3cc(CN4CCOCC4)ccc31)C2 [Compound 2]
3.48 nM | 23.2 | 80.9 nM | 43.9 nM | 17.9 nM | C=CC(=O)N1CC[C@]2(C1)C[C@H](n1c(NC(=O)c3cc(C)no3)nc3cc(CN4CCN(C)CC4)ccc31)C2 [Compound 3]
1.42 nM | 390 | 553 nM | 96.3 nM | 12 nM | C=CC(=O)N1CC[C@]2(C1)C[C@H](n1c(NC(=O)c3cc(C(C)C)no3)nc3cc(CN4CCCC4)ccc31)C2 [Compound 4]
1.25 nM | 461 | 576 nM | 50.5 nM | 7.65 nM | C=CC(=O)N1CC[C@]2(C1)C[C@H](n1c(NC(=O)c3cc(C4CCC4)no3)nc3cc(CN4CCCC4)ccc31)C2 [Compound 5]
5.04 nM |  | 536 nM | 529 nM | 59.7 nM | C=CC(=O)N1CC[C@]2(C1)C[C@H](n1c(NC(=O)c3cc(C(C)(C)C)no3)nc3cc(CN4CCCC4)ccc31)C2 [Compound 7]

Continued, molecule first:

SMILES | IC50 (TXK) | ITK/TXK Ratio (TXK) | IC50 (ITK) | IC50 (TEC) | IC50 (BTK)
C=CC(=O)N1CC[C@]2(C1)C[C@H](n1c(NC(=O)c3cc(C)no3)nc3cc(CN4CCCC4)ccc31)C2 [Compound 1] | 5.28 nM | 24.1 | 127 nM | 95.5 nM | 16.1 nM
C=CC(=O)N1CC[C@]2(C1)C[C@H](n1c(NC(=O)c3cc(C4CCCCC4)no3)nc3cc(CN4CCCC4)ccc31)C2 [Compound 6] | 1.78 nM | >561 | > 1000 nM | 105 nM | 10.1 nM
C=CC(=O)N1CC[C@]2(C1)C[C@H](n1c(NC(=O)c3cc(-c4ccccc4)no3)nc3cc(CN4CCCC4)ccc31)C2 [Compound 8] | 1.97 nM | 187 | 369 nM | 136 nM | 25.7 nM
